Laboratory results as given in paper PMC11163988, “Cloning, expression, and purification of an α-carbonic anhydrase from Toxoplasma gondii to unveil its kinetic parameters and anion inhibition profile” (Journal of Enzyme Inhibition and Medicinal Chemistry, 2024).

Target: hCA II (Homo sapiens, UniProt P00918)
Assay: stopped-flow CO2 hydrase assay, hCA II
Assay type: biochemical
Conditions: 20 mM Hepes pH 7.5, 20 mM NaClO4, mean from 3 assays

SMILES	Ki [mM]
F[P-](F)(F)(F)(F)F [PF6^–, haxafluorophosphate]	> 100

Target: Tg_CA (Toxoplasma gondii α-CA) (Toxoplasma gondii, UniProt S8F479)
Sequence (S8F479 486-829 limits assumed): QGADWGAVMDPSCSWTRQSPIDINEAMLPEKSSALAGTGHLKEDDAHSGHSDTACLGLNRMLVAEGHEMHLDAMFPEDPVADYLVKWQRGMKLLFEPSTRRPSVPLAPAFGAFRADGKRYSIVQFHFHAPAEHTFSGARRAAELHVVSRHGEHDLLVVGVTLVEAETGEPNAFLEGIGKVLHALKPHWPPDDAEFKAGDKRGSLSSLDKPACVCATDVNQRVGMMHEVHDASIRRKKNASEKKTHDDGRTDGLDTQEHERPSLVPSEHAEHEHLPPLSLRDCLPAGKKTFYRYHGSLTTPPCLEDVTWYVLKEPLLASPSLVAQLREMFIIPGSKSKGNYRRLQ
Assay: biochemical
Assay type: biochemical
Conditions: not given

SMILES	Ki [mM]
OB(O)c1ccccc1 [Ph-B(OH)2, phenylboronic acid]	5.1

Same assay, conditions: pH 7.5; read-out: KI (mM) Tg_CAα

SMILES	Ki [mM]
CCN(CC)C(=S)S [Et2NCS2^–, N,N-diethyldithiocarbamate]	3.1
I [I^–]	> 100
O=S(=O)(O)O [SO4^2–, sulphate]	6
O=C(O)O [HCO3^–, bicarbonate]	> 100
Br [Br^–]	> 100
[O]=[Ru](=[O])(=[O])=[O] [RuO4^–, perruthenate]	2.3
O=C(O)O [CO3^2–, carbonate]	98.2
O=NO [NO2^–, nitrite]	6.4
N#C[SeH] [SeCN^–, selenocyanate]	> 100
N#CS [SCN^–, thiocyanate]	31.9
N#CO [CNO^–, cyanate]	49.6
O=S(=O)(O)OOS(=O)(=O)O [S2O8^2–, peroxydisulfate]	26.6
OB1OB2OB(O)OB(O1)O2 [B4O7^2–, tetraborate]	63.9
S=C(S)S [CS3^2–, trithiocarbonate]	4.8
Cl [Cl^–, chloride]	> 100
NS(N)(=O)=O [H2NSO2NH2, sulfamide]	0.92

SMILES	Ki [mM]
[N-]=[N+]=[N-] [N3^–, azide]	> 100
O=P(O)(O)OP(=O)(O)O [P2O7^4–, diphosphate]	35.7
F[B-](F)(F)F [BF4^–, tetrafluoroborate]	25
S [HS^–, hydrogensulfide]	45.7
[O]=[Re](=[O])(=[O])[OH] [ReO4^–, perrhenate]	3.4
F[P-](F)(F)(F)(F)F [PF6^–, haxafluorophosphate]	1.9
F [F^–]	> 100
[O-][Cl+3]([O-])([O-])O [ClO4^–, perchlorate]	77.8
O=S(=O)(O)NS(=O)(=O)O [NH(SO3)2^2–, iminodisulfonate]	8.5
O=[Te](=O)(O)O [TeO4^2–, tellurate]	2.5
O=[N+]([O-])O [NO3^–, nitrate]	8.5
O=S(O)O [HSO3^–, bisulphite]	9.1
[O]=[V]([OH])([OH])[O][V](=[O])([OH])[OH] [V2O7^4–, divanadate]	39.8
O=S(=O)(O)C(F)(F)F [CF3SO3^–, triflate]	7.1
NS(=O)(=O)O [H2NSO3H, sulphamic acid]	0.68
